Experimental data as given in PubChem BioAssay (NCI).
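Cultured in 96-well plates, cells were exposed to test compound for 48 hours across five concentrations. TGI: total growth inhibition.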

Key:
Assay in all cases: DTP human tumour cell line panel, 48 h
[1] = system: 786-0 renal
[2] = system: BT-549 breast
[3] = system: HCT-15 colon
[4] = system: HOP-92 NSCLC
[5] = system: K-562 leukemia
[6] = system: MDA-N
[7] = system: NCI-H460 lung
[8] = system: NCI/ADR-RES ovarian
[9] = system: RXF 393 renal
[10] = system: SN12C renal
[11] = system: UACC-257 melanoma

SMILES	TGI [1] [µM]	TGI [2] [µM]	TGI [3] [µM]	TGI [4] [µM]	TGI [5] [µM]	TGI [6] [µM]	TGI [7] [µM]	TGI [8] [µM]	TGI [9] [µM]	TGI [10] [µM]	TGI [11] [µM]
CC(=O)O[C@H]1CC[C@@]2(C)C(=CC[C@@H]3[C@@H]2CC[C@]2(C)c4nc(Cl)ccc4C[C@@H]32)C1	> 100	> 100	> 100	> 100	> 100	> 100	> 100	> 100	> 100	> 100	> 100
COc1ccc(CNc2cc(=O)n(C)c(=O)[nH]2)cc1	> 100	> 100	> 100	> 100	> 100	> 100	> 100	> 100	> 100	> 100	> 100
CN(C)CCc1c2c(nc3ccccc13)C(=O)c1cccnc1C2=O	0.759	1.71	0.927	8.76	> 29.1	1.38	0.5	1.03	1.26	1.92	1.03
NNc1nnc(-c2nnc(NN)o2)o1	> 10	> 10	> 10	> 10	> 10	> 10	> 10	> 10	> 10	> 10	> 10
CNNC(=NS(=O)(=O)c1cc(C#N)c(NNC)cc1S)NNC	> 10	> 10	> 10	> 10	> 10	> 10	> 10	> 10	> 10	> 10	> 10
Clc1ccc(C2ON=C(c3ccccc3)N2C23CC4CC(CC(C4)C2)C3)cc1 (stereo unspecified)	> 10	> 10	> 10	> 10	> 10	> 10	> 10	> 10	> 10	> 10	> 10
COc1cccc(C(=O)C#Cc2cnc(OC)nc2OC)c1	3.61	2.63	0.516	4.28	> 100	3	28.3	4.83	1.39	2	6.42
C=C1CC[C@@H](C)[C@](C)(CCc2ccoc2)C/C=C\C=C/1C(=O)O	> 100	49.1	> 100	> 100	> 100	66.1	> 100	> 100	90.8	> 100	> 100
C[N+](C)(C)c1ncnc2c1ncn2C1CCCO1 (stereo unspecified)	> 100	> 100	> 100	> 100	> 100	> 100	> 100	> 100	> 100	> 100	> 100
COc1ccc2c3c1O[C@H](c1ccc(O)cc1)[C@H]3[N+](C)(C)CC2	> 100	> 100	> 100	> 100	88.2	> 100	> 100	> 100	> 100	> 100	> 100
N#Cc1nc(C#N)n(S(=O)(=O)c2ccccc2)c1NS(=O)(=O)c1ccccc1	> 100	> 100	> 100	> 100	> 100	> 100	> 100	> 100	> 100	> 100	> 100
COc1ccc(C(=O)/C=C/c2ccc(OCC#N)cc2)cc1	> 100	31.6	54.7	67.4	96.6	> 10	81.1	50	30.7	39.2	> 100
O=[N+]([O-])c1ccc(C(O)(C#CCN2CCCC2)c2ccccc2)cc1 (stereo unspecified)	> 100	> 100	> 100	51.7	42.6	> 100	> 100	> 100	> 100	> 100	58.7
CN(CCCNC(=O)c1cc(-c2ccccc2)nc2ccccc12)CCCNC(=O)c1cc(-c2ccccc2)nc2ccccc12	3.18	26.8	12.2	9.85	4.69	3.28	3.81	11.1	16	17.4	3.34
COc1cc(Oc2nc3ccc(C(F)(F)F)cc3nc2-c2ccccc2)cc(OC)c1OC	12.7	56	> 100	45.7	> 100	> 100	> 100	> 100	45.7	> 100	> 100
CCOC(=O)C1CCCCN1C(=O)Cc1c[nH]c2ccccc12 (stereo unspecified)	> 100	> 100	> 100	> 100	> 100	> 100	> 100	> 100	> 100	> 100	> 100
